“Also recorded” adds a separate entry of the source.
Tests used:
pulmonary cells = assay: Luciferase activity in lungs of mice after intratracheal injection of plasmid/polar compound compositions; assay type: in vivo; conditions: B6/SJLF1 mice
Procedure: The chosen polynucleotide, i.e. the plasmid pTG11033 (FIG. 1), encompasses the gene encoding luciferase placed under the control of the CMV promoter, intron 1 of the HMG gene and the SV40 polyA termination signal. The plasmid DNA contained in 250 μl of a 1 mg/ml solution of purified plasmid (purified by centrifugation in a cesium chloride gradient) is precipitated with ethanol. After having been centrifuged, washed with 70% ethanol and dried, the nucleic acid pellet is taken up in a given volume of DESO or DPSO and of 20 mM Hepes buffer, pH 7.5, in order to give the following compositions as shown in Table I below: The 8-week-old female mice (B6/SJLF1, Iffa Credo) were anaesthetized by means of intraperitoneal injection (physiological saline, […] 1000, xylazine/ROMPUN). […] Each composition is injected into at least three different mice. The expression levels are compared with those obtained after injecting 50 μg of DNA in 50 μl of 20 mM Hepes, pH 7.5, without any addition of polar compound. A control in which the mice are not injected is also included in the protocol. The mice are sacrificed two days after the injections. The lungs and the trachea are treated independently. The tissues are frozen in liquid nitrogen and stored at -80° C. In order to measure the luciferase activity, the tissues are ground up mechanically using a pestle in a mortar which is placed on dry ice. 500 μl or 200 μl of a lysis buffer (Promega) are added to the tissue fragments obtained from the lungs or the trachea, respectively, and the solution is subjected to three steps of freezing/thawing. The cell debris is removed by centrifugation and the luciferase activity (in RLU/min, relative light unit per minute) is measured on 20 μl of supernatant, in accordance with the supplier's (Promega) instructions, by adding 100 μl of reagent and measuring the activity by means of luminescence. The luciferase activity which is measured is standardized in relation to the quantity of protein with the aid of a standard scale which is generated using commercially available luciferase (Promega). […]

plasmid DNA (pTG11033) = assay: Plasmid DNA melting curves; assay type: physicochemical; conditions: 50 μg/ml pTG11033 in 20 mM HEPES pH 7.5, 0-20% DPSO, 35-100° C., 260 nm; versus DNA alone
Procedure: Plasmid DNA melting curves were recorded on a thermostated UV/Visible CARY/VARIAN spectrophotometer (sofware version: 3.04) using 2 quartz cuvettes (L=1cm) with Teflon stopper.

airways cell = assay: Theophylline pretreatment before airway delivery of a composition comprising DPSO; assay type: in vivo; conditions: oral 0.3 mg theophylline to mice about 30 min before composition comprising DPSO
Text: Finally, the invention relates to a cell which is transfected with a composition as previously defined, in particular a prokaryotic cell, or a yeast or eukaryotic cell, in particular an animal cell, in particular a mammalian cell, more especially a cancerous cell. According to a preferred embodiment of the invention, the said cell is an airways cell, more especially a tracheal or pulmonary cell, advantageously a cell of the respiratory epithelium. In the case of airway delivery, prior administration of bronchodilator compounds (for example, theophylline) could be advantageous.

Absorbance change upon DNA melting (plasmid DNA (pTG11033))	temperature at which absorbance change (DNA melting) occurs (plasmid DNA (pTG11033))	SMILES	measured level of expression of the luciferase-encoding gene on increasing the percentage of the compound (pulmonary cells; 50 μg DNA, FIG. 4)	expression of the luciferase gene in the pulmonary tissues (pulmonary cells; 50 μg DNA/50 μl, 15% (v/v) polar compound, sacrificed two days after injection, compared with polynucleotide alone)	transfection of the pulmonary cells (luciferase expression) (pulmonary cells; 50 μg pTG11033/50 μl, 10 or 15% polar compound, compared with polynucleotide on its own)	expression level compared with administration without pretreatment (airways cell)
lowered	higher temperature	CCC[S+]([O-])CCC [DPSO, di-n-propyl sulphoxide]	improve the measured level of expression	increases expression; also recorded: markedly improved	best results	
		Cn1c(=O)c2[nH]cnc2n(C)c1=O [theophylline]				slightly increase of the expression level

Source: US6656734B1, “Compositions for the delivery of polynucleotides to cells” (Transgene S.A., priority 1997, dated 2003)
